Target: T1, human calcium receptor (Homo sapiens, UniProt P41180)
T1 construct: expressed in transfected cells; host or cells: HEK 293 4.0-7
T1 sequence (P41180 20-1078): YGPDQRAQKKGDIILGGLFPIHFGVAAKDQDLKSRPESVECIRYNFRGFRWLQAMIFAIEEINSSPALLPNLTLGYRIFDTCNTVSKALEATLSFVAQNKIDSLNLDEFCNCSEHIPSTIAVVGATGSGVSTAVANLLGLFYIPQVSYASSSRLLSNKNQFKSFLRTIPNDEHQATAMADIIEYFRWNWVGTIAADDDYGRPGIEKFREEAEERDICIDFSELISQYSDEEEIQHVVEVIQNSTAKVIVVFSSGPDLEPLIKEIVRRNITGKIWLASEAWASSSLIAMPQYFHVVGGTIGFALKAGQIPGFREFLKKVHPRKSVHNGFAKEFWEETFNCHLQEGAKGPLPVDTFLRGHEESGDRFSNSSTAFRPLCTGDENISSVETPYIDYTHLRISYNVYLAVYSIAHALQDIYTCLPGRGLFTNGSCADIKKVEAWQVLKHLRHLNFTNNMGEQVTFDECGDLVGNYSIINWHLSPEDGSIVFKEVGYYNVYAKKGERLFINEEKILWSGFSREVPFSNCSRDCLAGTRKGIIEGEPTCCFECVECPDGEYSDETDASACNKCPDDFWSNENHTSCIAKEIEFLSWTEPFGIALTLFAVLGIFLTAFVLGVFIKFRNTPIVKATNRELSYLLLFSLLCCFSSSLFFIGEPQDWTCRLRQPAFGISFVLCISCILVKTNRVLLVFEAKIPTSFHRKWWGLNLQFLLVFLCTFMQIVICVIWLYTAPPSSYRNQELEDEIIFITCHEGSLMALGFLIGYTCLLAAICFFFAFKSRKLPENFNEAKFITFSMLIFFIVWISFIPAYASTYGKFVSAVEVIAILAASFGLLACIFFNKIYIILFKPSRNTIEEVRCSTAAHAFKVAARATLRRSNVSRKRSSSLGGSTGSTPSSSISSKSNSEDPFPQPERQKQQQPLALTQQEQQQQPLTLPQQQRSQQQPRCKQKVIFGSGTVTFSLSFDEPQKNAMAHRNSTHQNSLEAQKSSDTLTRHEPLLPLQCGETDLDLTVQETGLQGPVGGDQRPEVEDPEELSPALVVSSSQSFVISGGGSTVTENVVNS
Assay: Calcium Receptor Inhibitor Assay (block of intracellular Ca2+ increase elicited by extracellular Ca2+, fluo-3)
Format: cell-based
Set-up: key: Compounds having an IC50 greater than 30 uM were considered to be inactive; Compounds having an IC50 greater than 30 uM were considered to be inactive
Settings: HEK 293 4.0-7 cells stably expressing the human calcium receptor; at the concentrations used
Method: (I) Calcium Receptor Inhibitor Assay
Calcilytic activity was measured by determining the IC50 of the test compound for blocking increases of intracellular Ca^2+ elicited by extracellular Ca^2+ in HEK 293 4.0-7 cells stably expressing the human calcium receptor. HEK 293 4.0-7 cells were constructed as described by Rogers et al., J. Bone Miner. Res. 10 Suppl. 1:3483, 1995 (hereby incorporated by reference herein). Intracellular Ca^2+ increases were elicited by increasing extracellular Ca^2+ from 1 to 1.75 mM. Intracellular Ca^2+ was measured using fluo-3, a fluorescent calcium indicator.
The procedure was as follows:
1. Cells were maintained in T-150 flasks in selection media (DMEM supplemented with 10% fetal bovine serum and 200 ug/mL hygromycin B), under 5% CO2:95% air at 37° C. and were grown up to 90% confluency.
2. The medium was decanted and the cell monolayer was washed twice with phosphate-buffered saline (PBS) kept at 37° C. After the second wash, 6 mL of 0.02% EDTA in PBS was added and incubated for 4 minutes at 37° C. Following the incubation, cells were dispersed by gentle agitation.
3. Cells from 2 or 3 flasks were pooled and pelleted (100×g). The cellular pellet was resuspended in 10-15 mL of SPF-PCB+ and pelleted again by centrifugation. This washing was done twice.
Sulfate- and phosphate-free parathyroid cell buffer (SPF-PCB) contains 20 mM Na-Hepes, pH 7.4, 126 mM NaCl, 5 mM KCl, and 1 mM MgCl2. SPF-PCB was made up and stored at 4° C. On the day of use, SPF-PCB was supplemented with 1 mg/mL of D-glucose and 1 mM CaCl2 and then split into two fractions. To one fraction, bovine serum albumin (BSA; fraction V, ICN) was added at 5 mg/mL (SPF-PCB+). This buffer was used for washing, loading and maintaining the cells. The BSA-free fraction was used for diluting the cells in the cuvette for measurements of fluorescence.
4. The pellet was resuspended in 10 mL of SPF-PCB+ containing 2.2 uM fluo-3 (Molecular Probes) and incubated at room temperature for 35 minutes.
5. Following the incubation period, the cells were pelleted by centrifugation. The resulting pellet was washed with SPF-PCB+. After this washing, cells were resuspended in SPF-PCB+ at a density of 1-2×10^6 cells/mL.
6. For recording fluorescent signals, 300 uL of cell suspension were diluted in 1.2 mL of SPF buffer containing 1 mM CaCl2 and 1 mg/mL of D-glucose. Measurements of fluorescence were performed at 37° C. with constant stirring using a spectrofluorimeter. Excitation and emission wavelengths were measured at 485 and 535 nm, respectively. To calibrate fluorescence signals, digitonin (5 mg/mL in ethanol) was added to obtain Fmax, and the apparent Fmin was determined by adding Tris-EGTA (2.5 M Tris-Base, 0.3 M EGTA). The concentration of intracellular calcium was calculated using the following equation:
Intracellular calcium=(F−Fmin/Fmax)×Kd; where Kd=400 nM.
7. To determine the potential calcilytic activity of test compounds, cells were incubated with test compound (or vehicle as a control) for 90 seconds before increasing the concentration of extracellular Ca^2+ from 1 to 2 mM. Calcilytic compounds were detected by their ability to block, in a concentration-dependent manner, increases in the concentration of intracellular Ca^2+ elicited by extracellular Ca^2+.
In general, those compounds having lower IC50 values in the Calcium Receptor Inhibitor Assay are more preferred compounds. […] The present examples were tested except for Examples 11, 20, 28, 44 and 107.

SMILES	IC50 for blocking increases of intracellular Ca2+ elicited by extracellular Ca2+ (calcilytic activity)
CNCc1ccc(-c2c(C)nc(-c3ccccc3O)n(CCc3ccccc3)c2=O)s1 [Example 216, 2-(2-hydroxyphenyl)-6-methyl-5-{5-[(methylamino)methyl]-2-thienyl}-3-(2-phenylethyl)-4(3H)-pyrimidinone]	inactive
Cc1nc(-c2ccccc2O)n(CCc2ccccc2)c(=O)c1-c1ccc(CN)s1 [Example 215, 5-[5-(Aminomethyl)-2-thienyl]-2-(2-hydroxyphenyl)-6-methyl-3-(2-phenylethyl)-4(3H)-pyrimidinone]	inactive
Cc1nc(-c2ccccc2O)n(CCc2ccccc2)c(=O)c1N [Example 123, 5-Amino-2-(2-hydroxyphenyl)-6-methyl-3-(2-phenylethyl)-4(3H)-pyrimidinone]	inactive
CCc1c(CCC2CCCCC2)nc(-c2cccc(F)c2O)n(CCc2ccccc2F)c1=O [Example 46]	inactive
Cc1nc(-c2ccccc2O)n(CCc2ccccc2)c(=O)c1NC(=O)C(C)C [Example 127, N-[2-(2-Hydroxyphenyl)-4-methyl-6-oxo-1-(2-phenylethyl)-1,6-dihydro-5-pyrimidinyl]-2-methylpropanamide]	inactive
CCc1c(N2CCCCC2)nc(-c2cccc(F)c2O)n(CCc2cccc(F)c2)c1=O [Example 27, 5-Ethyl-2-(3-fluoro-2-hydroxyphenyl)-3-[2-(3-fluorophenyl)ethyl]-6-(1-Piperidinyl)-4(3H)-pyrimidinone]	inactive
Cc1nc(-c2ccccc2O)n(CCc2ccccc2)c(=O)c1-c1ccc(-c2nnn[nH]2)s1 [Example 214, 2-(2-hydroxyphenyl)-6-methyl-3-(2-phenylethyl)-5-[5-(1H-tetrazol-5-yl)-2-thienyl]-4(3H)-pyrimidinone]	inactive
COc1ccccc1-c1nc(C)c(-c2cccs2)c(=O)n1CCc1ccccc1 [Example 100, 6-Methyl-2-[2-(methyloxy)phenyl]-3-(2-phenylethyl)-5-(2-thienyl)-4(3H)-pyrimidinone]	inactive
